{"source": "ChEMBL document CHEMBL4020826", "about": "(J Med Chem, 2018)", "key": {"[1]": {"biological_target": "Voltage-gated inwardly rectifying potassium channel KCNH2 (Homo sapiens, UniProt Q12809)", "sequence (Q12809 whole entry)": "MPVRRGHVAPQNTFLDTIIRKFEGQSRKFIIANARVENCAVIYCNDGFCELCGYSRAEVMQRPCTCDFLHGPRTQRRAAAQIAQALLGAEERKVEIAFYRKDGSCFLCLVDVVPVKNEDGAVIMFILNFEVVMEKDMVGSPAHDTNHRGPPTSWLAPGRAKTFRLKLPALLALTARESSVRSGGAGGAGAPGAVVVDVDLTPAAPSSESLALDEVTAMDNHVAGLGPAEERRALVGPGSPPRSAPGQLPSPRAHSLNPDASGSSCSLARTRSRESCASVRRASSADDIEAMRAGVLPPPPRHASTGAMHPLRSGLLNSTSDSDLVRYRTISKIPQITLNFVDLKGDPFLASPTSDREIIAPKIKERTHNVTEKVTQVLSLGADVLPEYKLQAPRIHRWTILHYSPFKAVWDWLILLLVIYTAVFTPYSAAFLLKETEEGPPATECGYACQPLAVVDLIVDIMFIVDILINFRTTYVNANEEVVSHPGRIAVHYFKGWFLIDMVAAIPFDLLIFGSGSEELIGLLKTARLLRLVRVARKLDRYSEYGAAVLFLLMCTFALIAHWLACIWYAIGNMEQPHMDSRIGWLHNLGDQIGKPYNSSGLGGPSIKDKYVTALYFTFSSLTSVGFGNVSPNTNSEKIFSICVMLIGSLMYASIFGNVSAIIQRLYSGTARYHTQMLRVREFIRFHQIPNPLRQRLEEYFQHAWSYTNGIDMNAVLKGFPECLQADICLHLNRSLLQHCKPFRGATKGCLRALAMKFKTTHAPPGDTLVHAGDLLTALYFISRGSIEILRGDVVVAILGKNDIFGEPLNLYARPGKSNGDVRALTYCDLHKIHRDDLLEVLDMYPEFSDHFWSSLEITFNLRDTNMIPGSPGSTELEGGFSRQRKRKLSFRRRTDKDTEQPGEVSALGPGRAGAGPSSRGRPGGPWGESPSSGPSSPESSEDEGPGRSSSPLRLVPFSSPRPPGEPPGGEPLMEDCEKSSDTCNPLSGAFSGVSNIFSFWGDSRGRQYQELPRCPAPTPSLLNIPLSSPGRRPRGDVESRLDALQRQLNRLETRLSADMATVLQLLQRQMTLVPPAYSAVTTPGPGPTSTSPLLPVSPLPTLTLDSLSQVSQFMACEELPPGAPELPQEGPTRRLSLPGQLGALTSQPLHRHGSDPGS", "experiment": "Displacement of [3H]-dofetilide from human ERG"}, "[2]": {"experiment": "Drug level in Sprague-Dawley rat CSF at 0.5 mg/kg/day, sc administered via infusion measured after 72 hrs post dose by LC-MS/MS analysis", "type": "ADME, organism-based, Cerebrospinal fluid", "settings": "read-out: Drug uptake; call rule not given here"}, "[3]": {"experiment": "Plasma concentration in Sprague-Dawley rat at 1.5 mg/kg/day, sc administered via infusion measured after 24 hrs post dose by LC-MS/MS analysis", "type": "ADME, organism-based"}, "[4]": {"experiment": "Fraction unbound in rat brain", "type": "ADME, tissue-based"}, "[5]": {"experiment": "Plasma concentration in Sprague-Dawley rat at 15 mg/kg/day, sc administered via infusion measured after 24 hrs post dose by LC-MS/MS analysis", "type": "ADME, organism-based"}, "[6]": {"experiment": "Bioavailability in Sprague-Dawley rat at 3 mg/kg, sc measured over 8 hrs by LC-MS/MS analysis", "type": "ADME, organism-based", "settings": "in vivo"}, "[7]": {"biological_target": "CYP2C9 (Homo sapiens, UniProt P11712)", "sequence (P11712 whole entry)": "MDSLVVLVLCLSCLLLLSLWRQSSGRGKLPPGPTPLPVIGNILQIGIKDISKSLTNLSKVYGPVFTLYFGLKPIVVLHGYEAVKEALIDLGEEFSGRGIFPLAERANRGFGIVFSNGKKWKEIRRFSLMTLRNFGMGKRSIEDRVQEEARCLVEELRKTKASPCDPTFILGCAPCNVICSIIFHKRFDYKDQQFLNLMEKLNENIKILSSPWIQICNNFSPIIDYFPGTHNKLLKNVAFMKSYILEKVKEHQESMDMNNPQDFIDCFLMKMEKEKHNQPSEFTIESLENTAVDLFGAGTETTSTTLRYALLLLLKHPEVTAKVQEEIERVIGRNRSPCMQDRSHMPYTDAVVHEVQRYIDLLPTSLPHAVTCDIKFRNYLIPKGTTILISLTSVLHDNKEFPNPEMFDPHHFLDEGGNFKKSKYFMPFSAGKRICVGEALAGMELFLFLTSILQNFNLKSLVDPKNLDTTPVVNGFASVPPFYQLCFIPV", "experiment": "Inhibition of human CYP2C9 at 10 uM", "type": "ADME"}, "[8]": {"experiment": "Drug level in Sprague-Dawley rat CSF at 1.5 mg/kg/day, sc administered via infusion measured after 72 hrs post dose by LC-MS/MS analysis", "type": "ADME, organism-based, Cerebrospinal fluid", "settings": "read-out: Drug uptake"}, "[9]": {"experiment": "Drug level in Sprague-Dawley rat CSF at 1 mg/kg, sc administered as single dose measured after 1 hr post dose by LC-MS/MS analysis", "type": "ADME, organism-based, Cerebrospinal fluid", "settings": "read-out: Drug uptake"}, "[10]": {"biological_target": "Metabotropic glutamate receptor 4 (Homo sapiens, UniProt Q14833)", "experiment": "Antagonist activity at recombinant human mGlu4 receptor expressed in hamster AV12 cells co-expressing rat EAAT1/Galpha15 assessed as inhibition of glutamate induced increase in Ca2+ flux after 2.5 mins by Fluo-3 AM dye-based FLIPR assay", "type": "functional, cell-based"}, "[11]": {"experiment": "AUC in Sprague-Dawley rat at 1 mg/kg, iv measured over 8 hrs by LC-MS/MS analysis", "type": "ADME, organism-based", "set-up": "time < 8 hr, dose 1 mg/kg, route intravenous", "settings": "in vivo"}, "[12]": {"system": "Rattus norvegicus", "experiment": "Toxicity in Sprague-Dawley rat assessed as reduction in spontaneous locomotive activity at 30 mg/kg, sc after 90 mins", "type": "organism-based", "set-up": "scale not given: the % may be the effect or the level left", "settings": "in vivo, 1.5 h"}, "[13]": {"experiment": "Drug metabolism in dog liver microsomes at 4 uM", "type": "ADME, Canis lupus familiaris, microsome", "settings": "read-out: Drug metabolism"}, "[14]": {"experiment": "Volume of distribution at steady state in Sprague-Dawley rat at 1 mg/kg, iv measured over 8 hrs by LC-MS/MS analysis", "type": "ADME, organism-based", "settings": "in vivo, read-out: Vdss"}, "[15]": {"experiment": "Plasma concentration in Sprague-Dawley rat at 10 mg/kg, sc administered as single dose measured after 1 hr post dose by LC-MS/MS analysis", "type": "ADME, organism-based"}, "[16]": {"experiment": "Plasma concentration in Sprague-Dawley rat at 0.3 mg/kg, sc administered as single dose measured after 1 hr post dose by LC-MS/MS analysis", "type": "ADME, organism-based"}, "[17]": {"biological_target": "Group II metabotropic glutamate receptor (mGlu2/mGlu3) (Rattus norvegicus) (UniProt P31421+P31422)", "sequence (P31421 whole entry, looked up)": "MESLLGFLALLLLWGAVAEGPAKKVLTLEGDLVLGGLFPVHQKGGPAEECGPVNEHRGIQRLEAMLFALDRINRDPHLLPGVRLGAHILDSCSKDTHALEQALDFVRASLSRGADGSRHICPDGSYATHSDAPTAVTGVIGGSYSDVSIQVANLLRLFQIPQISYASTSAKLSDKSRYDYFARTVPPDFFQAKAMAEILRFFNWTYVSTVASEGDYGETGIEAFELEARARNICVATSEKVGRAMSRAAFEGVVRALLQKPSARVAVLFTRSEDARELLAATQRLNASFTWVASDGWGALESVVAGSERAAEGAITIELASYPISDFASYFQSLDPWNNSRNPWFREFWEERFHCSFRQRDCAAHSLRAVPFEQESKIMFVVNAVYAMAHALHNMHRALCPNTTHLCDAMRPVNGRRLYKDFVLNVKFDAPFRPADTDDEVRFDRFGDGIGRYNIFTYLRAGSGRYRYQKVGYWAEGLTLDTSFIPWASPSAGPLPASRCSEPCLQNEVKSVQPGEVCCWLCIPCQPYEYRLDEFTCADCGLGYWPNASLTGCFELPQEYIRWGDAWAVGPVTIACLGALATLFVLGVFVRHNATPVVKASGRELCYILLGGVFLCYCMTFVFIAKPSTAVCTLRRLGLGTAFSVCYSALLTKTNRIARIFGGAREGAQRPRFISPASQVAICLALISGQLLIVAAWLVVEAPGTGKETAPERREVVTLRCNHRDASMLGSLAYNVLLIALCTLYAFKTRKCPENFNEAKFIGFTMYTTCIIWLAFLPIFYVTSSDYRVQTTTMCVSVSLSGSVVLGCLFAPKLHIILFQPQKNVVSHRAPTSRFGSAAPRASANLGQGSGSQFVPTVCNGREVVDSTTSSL", "sequence (P31422 whole entry, looked up)": "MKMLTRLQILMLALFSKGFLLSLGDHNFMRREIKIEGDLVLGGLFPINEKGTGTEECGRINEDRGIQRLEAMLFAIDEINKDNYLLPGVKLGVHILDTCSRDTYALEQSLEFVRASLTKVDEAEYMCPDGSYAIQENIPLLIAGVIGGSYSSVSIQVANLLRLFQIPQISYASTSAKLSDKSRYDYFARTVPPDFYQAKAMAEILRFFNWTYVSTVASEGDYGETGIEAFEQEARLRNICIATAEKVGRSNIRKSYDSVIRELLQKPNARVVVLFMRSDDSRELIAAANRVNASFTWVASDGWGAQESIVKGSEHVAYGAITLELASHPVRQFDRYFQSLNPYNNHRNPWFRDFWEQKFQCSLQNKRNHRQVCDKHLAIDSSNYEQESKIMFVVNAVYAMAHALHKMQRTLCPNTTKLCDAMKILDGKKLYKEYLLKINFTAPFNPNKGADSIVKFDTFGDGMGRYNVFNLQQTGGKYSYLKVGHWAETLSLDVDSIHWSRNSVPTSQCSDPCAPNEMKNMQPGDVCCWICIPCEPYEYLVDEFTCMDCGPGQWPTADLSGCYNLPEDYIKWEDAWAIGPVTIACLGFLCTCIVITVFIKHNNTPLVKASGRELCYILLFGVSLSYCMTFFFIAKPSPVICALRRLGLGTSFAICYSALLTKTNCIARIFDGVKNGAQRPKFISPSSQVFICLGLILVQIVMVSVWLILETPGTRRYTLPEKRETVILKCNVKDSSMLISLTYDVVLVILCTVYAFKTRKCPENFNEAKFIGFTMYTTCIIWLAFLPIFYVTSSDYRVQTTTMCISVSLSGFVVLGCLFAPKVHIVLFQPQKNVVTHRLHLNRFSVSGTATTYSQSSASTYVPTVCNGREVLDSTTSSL", "settings": "Sprague-Dawley", "description": "Agonist activity at mGlu2/3 receptor in Sprague-Dawley rat forebrain assessed as inhibition of spontaneous Ca2+ oscillations in cortical neurons after 300 secs by FLIPR assay"}, "[18]": {"biological_target": "Metabotropic glutamate receptor 2 (Homo sapiens, UniProt Q14416)", "sequence (Q14416 whole entry)": "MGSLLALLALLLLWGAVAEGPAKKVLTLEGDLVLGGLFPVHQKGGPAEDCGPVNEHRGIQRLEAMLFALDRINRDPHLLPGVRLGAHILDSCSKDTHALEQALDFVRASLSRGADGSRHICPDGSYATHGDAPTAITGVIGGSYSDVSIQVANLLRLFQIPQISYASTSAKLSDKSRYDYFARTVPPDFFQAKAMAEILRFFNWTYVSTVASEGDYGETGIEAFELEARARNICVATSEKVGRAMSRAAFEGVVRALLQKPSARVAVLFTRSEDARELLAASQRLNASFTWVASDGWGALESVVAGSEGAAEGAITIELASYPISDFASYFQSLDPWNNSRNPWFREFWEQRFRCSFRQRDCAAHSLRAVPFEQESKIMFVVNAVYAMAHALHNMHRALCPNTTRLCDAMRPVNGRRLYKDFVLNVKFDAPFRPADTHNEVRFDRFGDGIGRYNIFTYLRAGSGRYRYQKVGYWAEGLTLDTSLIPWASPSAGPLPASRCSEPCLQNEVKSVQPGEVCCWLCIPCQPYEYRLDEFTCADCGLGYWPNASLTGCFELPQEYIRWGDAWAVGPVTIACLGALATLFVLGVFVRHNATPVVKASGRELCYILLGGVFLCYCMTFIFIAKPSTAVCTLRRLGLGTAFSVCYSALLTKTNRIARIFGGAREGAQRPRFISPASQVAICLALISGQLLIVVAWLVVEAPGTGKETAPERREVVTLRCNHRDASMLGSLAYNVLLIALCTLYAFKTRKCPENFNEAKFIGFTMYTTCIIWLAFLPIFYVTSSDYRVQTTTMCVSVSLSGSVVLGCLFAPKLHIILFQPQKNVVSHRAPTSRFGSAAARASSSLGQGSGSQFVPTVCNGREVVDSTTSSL", "experiment": "Agonist activity at recombinant human mGlu2 receptor expressed in hamster AV12 cells co-expressing rat EAAT1/Galpha15 assessed as induction of increase in Ca2+ flux after 2.5 mins by Fluo-3 AM dye-based FLIPR assay"}, "[19]": {"experiment": "Drug level in Sprague-Dawley rat CSF at 0.1 mg/kg, sc administered as single dose measured after 1 hr post dose by LC-MS/MS analysis", "type": "ADME, organism-based, Cerebrospinal fluid", "settings": "read-out: Drug uptake"}, "[20]": {"experiment": "Fraction unbound in rat plasma", "type": "ADME, cell-free"}, "[21]": {"experiment": "Plasma concentration in Sprague-Dawley rat at 0.5 mg/kg/day, sc administered via infusion measured after 48 hrs post dose by LC-MS/MS analysis", "type": "ADME, organism-based"}, "[22]": {"experiment": "Half life in Sprague-Dawley rat at 1 mg/kg, iv measured over 8 hrs by LC-MS/MS analysis", "type": "ADME, organism-based", "settings": "in vivo"}, "[23]": {"experiment": "Drug level in Sprague-Dawley rat CSF at 3 mg/kg, sc administered as single dose measured after 1 hr post dose by LC-MS/MS analysis", "type": "ADME, organism-based, Cerebrospinal fluid", "settings": "read-out: Drug uptake"}, "[24]": {"experiment": "Drug level in Sprague-Dawley rat CSF at 5 mg/kg/day, sc administered via infusion measured after 72 hrs post dose by LC-MS/MS analysis", "type": "ADME, organism-based, Cerebrospinal fluid", "settings": "read-out: Drug uptake"}, "[25]": {"experiment": "Plasma concentration in Sprague-Dawley rat at 5 mg/kg/day, sc administered via infusion measured after 24 hrs post dose by LC-MS/MS analysis", "type": "ADME, organism-based"}, "[26]": {"experiment": "Plasma concentration in Sprague-Dawley rat at 15 mg/kg/day, sc administered via infusion measured after 6 hrs post dose by LC-MS/MS analysis", "type": "ADME, organism-based"}, "[27]": {"experiment": "Plasma concentration in Sprague-Dawley rat at 0.5 mg/kg/day, sc administered via infusion measured after 6 hrs post dose by LC-MS/MS analysis", "type": "ADME, organism-based"}, "[28]": {"experiment": "Plasma concentration in Sprague-Dawley rat at 0.5 mg/kg/day, sc administered via infusion measured after 12 hrs post dose by LC-MS/MS analysis", "type": "ADME, organism-based"}, "[29]": {"experiment": "Drug level in Sprague-Dawley rat CSF at 15 mg/kg/day, sc administered via infusion measured after 72 hrs post dose by LC-MS/MS analysis", "type": "ADME, organism-based, Cerebrospinal fluid", "settings": "read-out: Drug uptake"}, "[30]": {"experiment": "Drug level in Sprague-Dawley rat CSF at 10 mg/kg, sc administered as single dose measured after 1 hr post dose by LC-MS/MS analysis", "type": "ADME, organism-based, Cerebrospinal fluid", "settings": "read-out: Drug uptake"}, "[31]": {"experiment": "Plasma concentration in Sprague-Dawley rat at 15 mg/kg/day, sc administered via infusion measured after 48 hrs post dose by LC-MS/MS analysis", "type": "ADME, organism-based"}, "[32]": {"experiment": "Plasma concentration in Sprague-Dawley rat at 15 mg/kg/day, sc administered via infusion measured after 72 hrs post dose by LC-MS/MS analysis", "type": "ADME, organism-based"}, "[33]": {"experiment": "Plasma concentration in Sprague-Dawley rat at 5 mg/kg/day, sc administered via infusion measured after 12 hrs post dose by LC-MS/MS analysis", "type": "ADME, organism-based"}, "[34]": {"biological_target": "CYP3A4 (Homo sapiens, UniProt P08684)", "sequence (P08684 whole entry)": "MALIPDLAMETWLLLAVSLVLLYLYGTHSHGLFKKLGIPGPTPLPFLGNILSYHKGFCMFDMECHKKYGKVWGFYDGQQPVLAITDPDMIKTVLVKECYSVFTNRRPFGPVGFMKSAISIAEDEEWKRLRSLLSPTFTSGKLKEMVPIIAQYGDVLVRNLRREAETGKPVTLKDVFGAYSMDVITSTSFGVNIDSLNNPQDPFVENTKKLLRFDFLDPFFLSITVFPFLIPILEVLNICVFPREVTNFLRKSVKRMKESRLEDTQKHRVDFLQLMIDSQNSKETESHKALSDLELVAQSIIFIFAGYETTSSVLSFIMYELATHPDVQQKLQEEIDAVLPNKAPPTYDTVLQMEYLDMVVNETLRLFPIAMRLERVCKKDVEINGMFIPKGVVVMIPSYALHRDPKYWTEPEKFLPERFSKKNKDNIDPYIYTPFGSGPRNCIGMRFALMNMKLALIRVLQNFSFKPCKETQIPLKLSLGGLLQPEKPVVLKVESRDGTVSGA", "experiment": "Inhibition of human CYP3A4 at 10 uM", "type": "ADME"}, "[35]": {"experiment": "AUC in Sprague-Dawley rat at 3 mg/kg, sc measured over 8 hrs by LC-MS/MS analysis", "type": "ADME, organism-based", "set-up": "dose 3 mg/kg, time < 8 hr, route subcutaneous", "settings": "in vivo"}, "[36]": {"experiment": "Clearance in Sprague-Dawley rat at 1 mg/kg, iv measured over 8 hrs by LC-MS/MS analysis", "type": "ADME, organism-based", "settings": "in vivo"}, "[37]": {"biological_target": "Metabotropic glutamate receptor 5 (Homo sapiens, UniProt P41594)", "experiment": "Agonist activity at recombinant human mGlu5 receptor expressed in hamster AV12 cells co-expressing rat EAAT1/Galpha15 assessed as induction of increase in Ca2+ flux after 2.5 mins by Fluo-3 AM dye-based FLIPR assay", "type": "functional, cell-based"}, "[38]": {"experiment": "Drug metabolism in mouse liver microsomes at 4 uM", "type": "ADME, microsome", "settings": "read-out: Drug metabolism"}, "[39]": {"experiment": "Plasma concentration in Sprague-Dawley rat at 0.1 mg/kg, sc administered as single dose measured after 1 hr post dose by LC-MS/MS analysis", "type": "ADME, organism-based"}, "[40]": {"biological_target": "Metabotropic glutamate receptor 1 (Homo sapiens, UniProt Q13255)", "experiment": "Agonist activity at recombinant human mGlu1 receptor expressed in hamster AV12 cells co-expressing rat EAAT1/Galpha15 assessed as induction of increase in Ca2+ flux after 2.5 mins by Fluo-3 AM dye-based FLIPR assay", "type": "functional, cell-based"}}, "data": [{"smiles": "COc1cccc(C(=O)N[C@H]2C[C@@](N)(C(=O)O)[C@@H]3[C@@H](C(=O)O)[C@@H]32)c1", "values": [{"measurement": "inhibition (INH)", "setting": "[1]", "result": "Not Active"}, {"measurement": "concentration at 72 h", "setting": "[2]", "result": "< 7.5", "unit": "nM"}, {"measurement": "concentration at 24 h", "setting": "[3]", "result": 403, "unit": "nM"}, {"measurement": "fraction unbound", "setting": "[4]", "result": 1}, {"measurement": "concentration at 24 h", "setting": "[5]", "result": 3170, "unit": "nM"}, {"measurement": "bioavailability", "setting": "[6]", "result": 121, "unit": "%"}, {"measurement": "inhibition at 10 µM", "setting": "[7]", "result": 3.5, "unit": "%"}, {"measurement": "concentration at 72 h", "setting": "[8]", "result": 7.5, "unit": "nM"}, {"measurement": "concentration at 1 h", "setting": "[9]", "result": "12.5 to 22.5", "unit": "nM"}, {"measurement": "IC50", "setting": "[10]", "result": "> 12500", "unit": "nM"}, {"measurement": "AUC at 8 h", "setting": "[11]", "result": 2.75, "unit": "µM·h"}, {"measurement": "Activity", "setting": "[12]", "result": 36, "unit": "%"}, {"measurement": "metabolised at 4 µM", "setting": "[13]", "result": 28.9, "unit": "%"}, {"measurement": "Vd", "setting": "[14]", "result": 1.17, "unit": "L/kg"}, {"measurement": "concentration at 1 h", "setting": "[15]", "result": 25900, "unit": "nM"}, {"measurement": "concentration at 1 h", "setting": "[16]", "result": 771, "unit": "nM"}, {"measurement": "EC50H", "setting": "[17]", "result": 0.44, "unit": "nM"}, {"measurement": "EC50L", "setting": "[17]", "result": 43.6, "unit": "nM"}, {"measurement": "EC50", "setting": "[18]", "result": 277, "unit": "nM"}, {"measurement": "concentration at 1 h", "setting": "[19]", "result": 2.48, "unit": "nM"}, {"measurement": "fraction unbound", "setting": "[20]", "result": 1}, {"measurement": "concentration at 48 h", "setting": "[21]", "result": 95.1, "unit": "nM"}, {"measurement": "half-life", "setting": "[22]", "result": 3.1, "unit": "h"}, {"measurement": "concentration at 1 h", "setting": "[23]", "result": 73.6, "unit": "nM"}, {"measurement": "concentration at 72 h", "setting": "[24]", "result": 25.2, "unit": "nM"}, {"measurement": "concentration at 24 h", "setting": "[25]", "result": 1300, "unit": "nM"}, {"measurement": "concentration at 6 h", "setting": "[26]", "result": 3840, "unit": "nM"}, {"measurement": "concentration at 6 h", "setting": "[27]", "result": 156, "unit": "nM"}, {"measurement": "concentration at 12 h", "setting": "[28]", "result": 143, "unit": "nM"}, {"measurement": "concentration at 72 h", "setting": "[29]", "result": 86.7, "unit": "nM"}, {"measurement": "concentration at 1 h", "setting": "[30]", "result": 249, "unit": "nM"}, {"measurement": "concentration at 48 h", "setting": "[31]", "result": 2130, "unit": "nM"}, {"measurement": "concentration at 72 h", "setting": "[32]", "result": 3210, "unit": "nM"}, {"measurement": "concentration at 12 h", "setting": "[33]", "result": 1260, "unit": "nM"}, {"measurement": "inhibition at 10 µM", "setting": "[34]", "result": 3.6, "unit": "%"}, {"measurement": "AUC at 8 h", "setting": "[35]", "result": 9.88, "unit": "µM·h"}, {"measurement": "clearance", "setting": "[36]", "result": 18.3, "unit": "mL/min/kg"}, {"measurement": "EC50", "setting": "[37]", "result": "> 25000", "unit": "nM"}, {"measurement": "metabolised at 4 µM", "setting": "[38]", "result": 11.5, "unit": "%"}, {"measurement": "concentration at 1 h", "setting": "[39]", "result": 286, "unit": "nM"}, {"measurement": "EC50", "setting": "[40]", "result": "> 25000", "unit": "nM"}]}]}
